Results from article PMC7675540 (ACS Omega, 2020).

Target: T1, carboxylesterase 1 (CES1) (Homo sapiens, UniProt P23141)
T1 sequence (P23141 18-567): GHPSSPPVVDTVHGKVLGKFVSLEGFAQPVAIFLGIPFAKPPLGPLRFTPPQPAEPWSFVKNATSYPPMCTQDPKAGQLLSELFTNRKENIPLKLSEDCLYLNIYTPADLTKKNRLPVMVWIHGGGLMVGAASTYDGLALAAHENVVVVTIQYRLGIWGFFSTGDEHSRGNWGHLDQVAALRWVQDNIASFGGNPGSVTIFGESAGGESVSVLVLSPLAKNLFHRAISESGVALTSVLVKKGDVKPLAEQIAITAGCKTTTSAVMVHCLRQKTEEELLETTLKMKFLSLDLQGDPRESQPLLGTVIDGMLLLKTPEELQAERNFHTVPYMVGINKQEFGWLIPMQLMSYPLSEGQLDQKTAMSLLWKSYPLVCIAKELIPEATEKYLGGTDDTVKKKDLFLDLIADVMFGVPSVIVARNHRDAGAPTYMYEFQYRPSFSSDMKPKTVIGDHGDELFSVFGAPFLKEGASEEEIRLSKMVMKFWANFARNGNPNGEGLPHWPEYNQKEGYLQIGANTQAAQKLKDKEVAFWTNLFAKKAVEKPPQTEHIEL
Assay: LC-MS/MS of the product of PGD2-G hydrolysis
Type: biochemical

Compound: CCCCC[C@H](O)/C=C/[C@H]1C(=O)C[C@H](O)[C@@H]1C/C=C\CCCC(=O)O [PGD2]
- LC-MS/MS of the product of PGD2-G hydrolysis: Our data indicates that PGD2-G/PGD2 is a substrate/product dyad for CES1.
